Reference: ChEMBL document CHEMBL1275362, “Synthesis of new antifungal peptides selective against Cryptococcus neoformans” (2010)
Values after ≈ are worked out from the molar mass of the structure shown. Starred links: 1 amine or outer side, 2 acyl side, 3 side chain; linkers in the order of their positions; H or OH if unused. Non-standard residues stand in square brackets, D forms with d. Residues, ends and D or L forms follow the SMILES beside them. X1 = O=C([C@H](CC1=NC=NC1)N[*:1])[*:2]

Legend:
Type in all cases: functional
Pichia kudriavzevii = test: Antifungal activity against Candida krusei after 48 hrs by broth microdilution method
Candida parapsilosis = test: Antifungal activity against Candida parapsilosis after 48 hrs by broth microdilution method; conditions: Lodderomyces parapsilosis
Nakaseomyces glabratus = test: Antifungal activity against Candida glabrata after 48 hrs by broth microdilution method
Candida tropicalis = test: Antifungal activity against Candida tropicalis after 48 hrs by broth microdilution method
Cryptococcus neoformans [1] = test: Antifungal activity against Cryptococcus neoformans H99 after 72 hrs by broth microdilution method; conditions: H99, 72 h
Cryptococcus neoformans [2] = test: Antifungal activity against Cryptococcus neoformans ATCC 52817 after 72 hrs by broth microdilution method; conditions: ATCC 52817, 72 h
Candida albicans = test: Antifungal activity against Candida albicans after 48 hrs by broth microdilution method

Molecule	MIC (Pichia kudriavzevii) [µg/mL]	MIC90 (Pichia kudriavzevii) [µg/mL]	MIC (Candida parapsilosis) [µg/mL]	MIC90 (Candida parapsilosis) [µg/mL]	MIC (Nakaseomyces glabratus) [µg/mL]	MIC90 (Nakaseomyces glabratus) [µg/mL]	MIC (Candida tropicalis) [µg/mL]	MIC90 (Candida tropicalis) [µg/mL]	MIC (Cryptococcus neoformans [1]) [µg/mL]	MIC90 (Cryptococcus neoformans [1]) [µg/mL]	MIC (Cryptococcus neoformans [2]) [µg/mL]	MIC (Candida albicans) [µg/mL]	MIC90 (Candida albicans) [µg/mL]
N=C(N)NCCC[C@H](NC(=O)[C@H](Cc1c[nH]c2ccccc12)NC(=O)[C@H](Cc1c[nH]c2ccccc12)NC(=O)[C@H](CCCNC(=N)N)NC(=O)[C@H](CCCNC(=N)N)NC(=O)[C@H](CC1=NC=NC1)NC(=O)CNC(=O)[C@@H](N)Cc1c[nH]cn1)C(=O)N[C@@H](Cc1ccccc1)C(=O)O (H-HG[X1]RRWWRF-OH)	256 (≈ 191 µM)	512 (≈ 383 µM)	> 512	512 (≈ 383 µM)	256 (≈ 191 µM)	> 512	256 (≈ 191 µM)	> 512	8 (≈ 5.98 µM)	16 (≈ 12 µM)	8 (≈ 5.98 µM)	256 (≈ 191 µM)	> 512
N=C(N)NCCC[C@@H]1NC(=O)[C@H](CCCNC(=N)N)NC(=O)[C@H](Cc2c[nH]c3ccccc23)NC(=O)[C@H](Cc2c[nH]c3ccccc23)NC(=O)[C@H](CCCNC(=N)N)NC(=O)[C@H](Cc2ccccc2)NC(=O)[C@H](Cc2c[nH]cn2)NC1=O (cyclo(FRWWRRH))	32 (≈ 28.4 µM)	64 (≈ 56.9 µM)	64 (≈ 56.9 µM)	128 (≈ 114 µM)	64 (≈ 56.9 µM)	256 (≈ 227 µM)	64 (≈ 56.9 µM)	256 (≈ 227 µM)	4 (≈ 3.55 µM)	8 (≈ 7.11 µM)	8 (≈ 7.11 µM)	64 (≈ 56.9 µM)	256 (≈ 227 µM)
N=C(N)NCCC[C@@H]1NC(=O)[C@H](CCCNC(=N)N)NC(=O)[C@H](Cc2c[nH]c3ccccc23)NC(=O)[C@H](Cc2c[nH]c3ccccc23)NC(=O)[C@H](CCCNC(=N)N)NC(=O)[C@H](Cc2ccccc2)NC(=O)[C@H](Cc2c[nH]cn2)NC(=O)CNC(=O)[C@H](Cc2c[nH]cn2)NC1=O (cyclo(FRWWRRHGH))	32 (≈ 24.3 µM)	64 (≈ 48.5 µM)	32 (≈ 24.3 µM)	128 (≈ 97 µM)	64 (≈ 48.5 µM)	256 (≈ 194 µM)	32 (≈ 24.3 µM)	128 (≈ 97 µM)	2 (≈ 1.52 µM)	4 (≈ 3.03 µM)	4 (≈ 3.03 µM)	32 (≈ 24.3 µM)	128 (≈ 97 µM)
N=C(N)NCCC[C@@H]1NC(=O)[C@H](CCCNC(=N)N)NC(=O)[C@H](Cc2ccccc2)NC(=O)[C@H](CCCNC(=N)N)NC(=O)[C@H](Cc2c[nH]c3ccccc23)NC(=O)[C@H](Cc2c[nH]c3ccccc23)NC1=O (cyclo(RRWWRF))	32 (≈ 32.4 µM)	512 (≈ 518 µM)	32 (≈ 32.4 µM)	128 (≈ 130 µM)	128 (≈ 130 µM)	512 (≈ 518 µM)	128 (≈ 130 µM)	512 (≈ 518 µM)	4 (≈ 4.05 µM)	64 (≈ 64.8 µM)	8 (≈ 8.1 µM)	128 (≈ 130 µM)	512 (≈ 518 µM)
C[C@@H]1[C@H](O)[C@@H](C)/C=C/C=C/C=C/C=C/C=C/C=C/C=C/[C@H](O[C@@H]2O[C@H](C)[C@@H](O)[C@H](N)[C@@H]2O)C[C@@H]2O[C@](O)(C[C@@H](O)C[C@@H](O)[C@H](O)CC[C@@H](O)C[C@@H](O)CC(=O)O[C@H]1C)C[C@H](O)[C@H]2C(=O)O [AMPHOTERICIN B]	0.03 (≈ 0.0325 µM)	0.06 (≈ 0.0649 µM)	0.06 (≈ 0.0649 µM)	0.06 (≈ 0.0649 µM)	0.03 (≈ 0.0325 µM)	0.125 (≈ 0.135 µM)	0.03 (≈ 0.0325 µM)	0.06 (≈ 0.0649 µM)	0.125 (≈ 0.135 µM)	0.25 (≈ 0.271 µM)		0.03 (≈ 0.0325 µM)	0.125 (≈ 0.135 µM)
OC(Cn1cncn1)(Cn1cncn1)c1ccc(F)cc1F [FLUCONAZOLE]	16 (≈ 52.2 µM)	64 (≈ 209 µM)	1 (≈ 3.27 µM)	2 (≈ 6.53 µM)	4 (≈ 13.1 µM)	64 (≈ 209 µM)	0.5 (≈ 1.63 µM)	2 (≈ 6.53 µM)	2 (≈ 6.53 µM)	4 (≈ 13.1 µM)		0.125 (≈ 0.408 µM)	0.25 (≈ 0.816 µM)
H-HRRWWRF-OH	128	256	128	256	128	512	128	512	8	16	16	128	512
H-RRWWRF-OH	128	512	64	128	128	512	128	512	16	64	16	128	512
